# Source: ChEMBL document CHEMBL1201862, “PubChem BioAssay data set” (2004)
# Active and inactive are the calls of the source.
# Experiments:
# [1] = target: T1, Polyadenylate-binding protein 1 (Homo sapiens, UniProt P11940); assay: MLLE binding blockers, Cy5 peptide tracer – biochemical, fluorescence polarization, Cy5-PAM2 peptide, secondary, miRNA deadenylation inhibitor project, dose response (AID 602260); assay type: functional; details: read-out: IC50_Mean
# [2] = target: T1, Polyadenylate-binding protein 1; assay: MLLE domain peptide-binding blockers, IC50 – biochemical, fluorescence polarization, FITC-PAM2 peptide, dose response (AID 602259); assay type: functional; details: read-out: IC50_Mean
# [3] = test system: Streptococcus sp. 'group A'; assay: Streptococcus pyogenes SK(-)GAS viability under kanamycin – luminescence, BacTiterGlo, confirmation, counter-screen for streptokinase expression inhibitor project, dose response (AID 1900); assay type: functional, organism-based
# Streptokinase A = target: T2, Streptokinase A (Streptococcus pyogenes serotype M1, UniProt P10520); assay: viability-normalized secreted streptokinase activity reduction – plasminogen activation absorbance, OD405, dose response (AID 1914); assay type: functional, Streptococcus pyogenes M1 GAS;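 further: secreted streptokinase activity via plasminogen activation per viability signal from cell pellet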
# T2 sequence (P10520 whole entry): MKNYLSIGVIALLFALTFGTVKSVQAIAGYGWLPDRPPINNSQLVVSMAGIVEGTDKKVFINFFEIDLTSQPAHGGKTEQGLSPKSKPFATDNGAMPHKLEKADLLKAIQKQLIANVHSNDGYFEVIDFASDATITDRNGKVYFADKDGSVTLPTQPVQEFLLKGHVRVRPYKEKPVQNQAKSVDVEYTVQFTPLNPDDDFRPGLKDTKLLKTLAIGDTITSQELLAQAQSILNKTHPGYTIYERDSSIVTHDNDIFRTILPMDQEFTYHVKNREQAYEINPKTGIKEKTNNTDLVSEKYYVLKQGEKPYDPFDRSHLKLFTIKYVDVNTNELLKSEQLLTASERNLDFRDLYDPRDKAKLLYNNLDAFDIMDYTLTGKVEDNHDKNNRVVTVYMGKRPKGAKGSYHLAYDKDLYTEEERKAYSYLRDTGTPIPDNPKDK
# [4] = Trypanosoma cruzi growth suppression in host cells – NIH3T3 host cells, beta-gal luminescence, confirmation (AID 2044); assay type: functional, cell-based;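 further: intracellular parasites grown in NIH/3T3 mouse fibroblasts as host cells; luminescent beta-galactosidase reporter signal from transgenic T. cruzi replicating inside host cells; inhibitors lower the luminescence signal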
# [5] = viability of PTEN-deleted HCT116 cells – cell-based, HCT116 PTEN knockout, dose response (AID 1047); assay type: functional;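 further: HCT116 colon tumor cells with PTEN knocked out; cells exposed to compound for 60 hours before readout; potency for loss of cell viability measured by luminescence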
# [6] = NIH3T3 cell viability loss – ATP luminescence, mouse fibroblasts, counter-screen, dose response (AID 2010); assay type: functional, cell-based;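 further: cells exposed to compound for about 90 hours before reading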
# [7] = viability of HCT116 lacking mutant beta-catenin – cell-based, human colon tumor, dose response (AID 1045); assay type: functional;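 further: HCT116 colon tumor cells with beta catenin knocked out; cells exposed to compound for 60 hours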
# Streptococcus = assay: GAS UMAA2166 growth inhibition – luminescence, BacTiterGlo, counter-screen for streptokinase expression inhibitor project, dose response (AID 1915); assay type: functional, organism-based;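 further: potency for reduction of bacterial viability or growth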
# H9c2 = assay: cells; assay type: functional, cell-based; details: Rattus norvegicus, H9c2, Myocardium;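 further: confirmatory concentration-response retest of ultra-high-throughput screening hits for modulation of myocardial damage; cell death induced by hydrogen peroxide oxidative stress; compound pretreatment for 60 min then peroxide exposure for 2 h; potency is for protecting the cells against peroxide damage rather than for killing them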
# [8] = target: T3, RNA-binding protein pos-1 (Caenorhabditis elegans, UniProt G5EF15); assay: disruptors of C. elegans POS-1 RNA interaction – biochemical, fluorescence polarization, dose response (AID 1964);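 further: purified POS-1 fused to maltose binding protein made in E. coli; potency of compounds blocking POS-1 binding to fluorescent RNA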
# T3 sequence (G5EF15 whole entry): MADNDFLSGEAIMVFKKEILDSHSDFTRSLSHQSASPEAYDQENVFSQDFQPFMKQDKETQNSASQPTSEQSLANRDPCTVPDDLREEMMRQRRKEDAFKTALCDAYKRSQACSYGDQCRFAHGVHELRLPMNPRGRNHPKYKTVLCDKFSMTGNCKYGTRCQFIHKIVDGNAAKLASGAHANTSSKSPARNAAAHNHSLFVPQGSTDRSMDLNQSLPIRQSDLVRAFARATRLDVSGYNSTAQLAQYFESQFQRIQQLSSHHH
# [9] = target: T4, Zinc finger protein mex-5 (Caenorhabditis elegans, UniProt Q9XUB2); assay: potency of MEX-5 RNA-binding blockers – biochemical, C. elegans, fluorescence polarization, dose response (AID 1960)
# T4 sequence (Q9XUB2 whole entry): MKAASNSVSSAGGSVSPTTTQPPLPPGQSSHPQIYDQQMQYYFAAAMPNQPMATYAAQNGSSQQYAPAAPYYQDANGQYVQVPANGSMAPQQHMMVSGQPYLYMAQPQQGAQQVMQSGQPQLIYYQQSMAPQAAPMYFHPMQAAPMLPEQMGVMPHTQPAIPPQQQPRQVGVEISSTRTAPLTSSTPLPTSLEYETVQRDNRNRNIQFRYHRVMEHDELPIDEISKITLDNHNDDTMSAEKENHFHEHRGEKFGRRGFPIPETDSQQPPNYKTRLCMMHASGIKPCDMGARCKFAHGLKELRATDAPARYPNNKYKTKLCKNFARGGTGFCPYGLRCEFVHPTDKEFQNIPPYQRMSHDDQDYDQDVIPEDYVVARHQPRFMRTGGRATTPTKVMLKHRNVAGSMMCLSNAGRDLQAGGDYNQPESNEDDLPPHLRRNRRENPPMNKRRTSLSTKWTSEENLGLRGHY
# Leucine aminopeptidase = target: T5, Leucine aminopeptidase (Plasmodium falciparum 3D7, UniProt Q8IL11); assay: P. falciparum M17LAP inhibitors, primary screen, biochemical, fluorogenic H-Leu-NHMec substrate, 1536-well (AID 1619); assay type: functional
# T5 sequence (Q8IL11 whole entry): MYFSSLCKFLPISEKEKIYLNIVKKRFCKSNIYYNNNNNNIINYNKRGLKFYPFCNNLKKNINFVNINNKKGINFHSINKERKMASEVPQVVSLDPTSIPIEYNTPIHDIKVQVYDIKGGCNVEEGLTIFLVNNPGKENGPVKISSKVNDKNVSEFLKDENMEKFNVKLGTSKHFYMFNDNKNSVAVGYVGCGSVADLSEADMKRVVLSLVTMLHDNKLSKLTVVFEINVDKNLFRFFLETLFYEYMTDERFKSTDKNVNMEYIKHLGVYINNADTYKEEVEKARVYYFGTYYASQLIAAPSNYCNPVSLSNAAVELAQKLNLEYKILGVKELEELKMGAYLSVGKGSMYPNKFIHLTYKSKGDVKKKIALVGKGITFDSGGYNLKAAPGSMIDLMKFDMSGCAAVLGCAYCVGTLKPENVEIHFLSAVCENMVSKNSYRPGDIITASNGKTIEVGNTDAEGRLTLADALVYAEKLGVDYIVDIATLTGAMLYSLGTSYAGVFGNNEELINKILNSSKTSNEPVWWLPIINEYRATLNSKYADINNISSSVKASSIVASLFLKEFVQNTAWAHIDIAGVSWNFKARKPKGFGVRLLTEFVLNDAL
# [10] = NIH-3T3 fibroblast cytotoxicity, dose response, cytotoxicity control, cell-based, fluorescence, Alamar Blue, secondary assay (AID 2327); assay type: functional;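 further: NIH-3T3 mouse fibroblasts cultured with fluconazole at 8 µg/mL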
# [11] = fluconazole-exposed Candida albicans growth modulators – fluorescence, retest, confirmation (AID 2467); assay type: functional, cell-based
# [12] = Luminescence Cell-Based Dose Retest to Confirm Inhibitors of Cancer Stem Cells. [Related pubchem assays (depositor defined):AID2717, AID2721]; assay type: functional; details: Homo sapiens
# Cytochrome P450 3A4 = Cytochrome P450 3A4 (Homo sapiens, UniProt P08684);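 further: CYP3A4 tested as one member of a cytochrome P450 panel screen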
# Sequence of Cytochrome P450 3A4 (P08684 whole entry): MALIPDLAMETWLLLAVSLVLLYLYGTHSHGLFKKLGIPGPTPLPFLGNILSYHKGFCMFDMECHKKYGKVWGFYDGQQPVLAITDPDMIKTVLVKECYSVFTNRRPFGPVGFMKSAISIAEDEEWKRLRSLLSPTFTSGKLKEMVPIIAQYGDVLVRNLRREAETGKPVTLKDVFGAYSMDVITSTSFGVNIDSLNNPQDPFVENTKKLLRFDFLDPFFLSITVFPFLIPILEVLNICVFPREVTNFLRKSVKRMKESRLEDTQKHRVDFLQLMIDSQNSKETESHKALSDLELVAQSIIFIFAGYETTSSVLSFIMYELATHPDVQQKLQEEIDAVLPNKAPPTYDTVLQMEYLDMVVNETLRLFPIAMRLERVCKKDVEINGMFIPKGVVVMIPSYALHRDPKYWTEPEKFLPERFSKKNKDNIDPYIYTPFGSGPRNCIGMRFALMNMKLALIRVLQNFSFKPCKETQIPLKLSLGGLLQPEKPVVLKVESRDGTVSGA
# [13] = target: T6, Rac GTPase-activating protein 1 (Homo sapiens, UniProt Q9H0H5); assay: blockers of MgcRacGAP-driven Rac1 GTP hydrolysis – biochemical, ADP Hunter fluorescence, primary and confirmatory, confirmation (AID 624330); assay type: functional
# T6 sequence (Q9H0H5 whole entry): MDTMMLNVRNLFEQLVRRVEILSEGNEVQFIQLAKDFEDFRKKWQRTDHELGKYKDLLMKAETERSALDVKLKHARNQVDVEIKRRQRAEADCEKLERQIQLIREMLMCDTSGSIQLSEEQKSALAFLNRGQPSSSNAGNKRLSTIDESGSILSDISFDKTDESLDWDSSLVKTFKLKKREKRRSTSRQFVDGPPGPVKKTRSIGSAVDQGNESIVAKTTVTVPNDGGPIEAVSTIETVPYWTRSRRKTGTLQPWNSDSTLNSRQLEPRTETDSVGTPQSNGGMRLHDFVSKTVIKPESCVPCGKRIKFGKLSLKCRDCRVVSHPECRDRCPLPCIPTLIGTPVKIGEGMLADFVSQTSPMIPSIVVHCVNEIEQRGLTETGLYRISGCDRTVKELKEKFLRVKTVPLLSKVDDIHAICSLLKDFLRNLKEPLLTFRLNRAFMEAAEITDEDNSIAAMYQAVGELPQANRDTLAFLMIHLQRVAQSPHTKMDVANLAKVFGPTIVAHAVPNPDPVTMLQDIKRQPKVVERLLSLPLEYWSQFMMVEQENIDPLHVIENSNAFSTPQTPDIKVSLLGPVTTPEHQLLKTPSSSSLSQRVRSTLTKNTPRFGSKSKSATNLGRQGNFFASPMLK
# T1 sequence (P11940 whole entry, the tested form may be a part): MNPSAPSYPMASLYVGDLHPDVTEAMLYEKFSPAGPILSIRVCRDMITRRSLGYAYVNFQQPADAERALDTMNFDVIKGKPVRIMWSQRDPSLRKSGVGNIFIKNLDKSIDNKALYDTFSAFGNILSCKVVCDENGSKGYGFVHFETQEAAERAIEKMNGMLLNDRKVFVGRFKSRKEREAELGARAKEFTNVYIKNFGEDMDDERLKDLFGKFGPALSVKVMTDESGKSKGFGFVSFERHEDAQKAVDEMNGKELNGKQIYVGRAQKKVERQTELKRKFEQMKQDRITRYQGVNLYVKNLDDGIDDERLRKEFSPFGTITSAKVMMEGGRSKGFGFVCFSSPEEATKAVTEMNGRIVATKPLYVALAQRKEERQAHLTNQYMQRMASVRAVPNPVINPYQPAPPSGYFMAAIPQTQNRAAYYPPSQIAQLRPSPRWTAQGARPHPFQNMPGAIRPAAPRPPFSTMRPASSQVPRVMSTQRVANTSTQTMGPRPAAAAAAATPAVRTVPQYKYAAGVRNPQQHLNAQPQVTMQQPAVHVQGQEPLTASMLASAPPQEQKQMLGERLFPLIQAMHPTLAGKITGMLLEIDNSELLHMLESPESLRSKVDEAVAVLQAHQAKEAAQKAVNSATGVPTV
smiles,measurement,setting,value
O=C(/C=C/c1ccc(-c2ccccc2[N+](=O)[O-])o1)c1ccco1,IC50,[1],> 66 µM (inactive)
same,IC50,[2],> 66 µM (inactive)
CC1=C(C(=O)Nc2ccc([N+](=O)[O-])cc2)C(c2cccc(C(F)(F)F)c2)N=C(S)N1c1ccccc1 (stereo not given),EC50,[3],7.84 µM (active)
same,EC50,Streptokinase A,18.8 µM (active)
same,EC50,[4],2.05 µM (active)
same,EC50,[5],9.06 µM (active)
same,EC50,[6],> 60 µM (inconclusive)
same,EC50,[7],11.5 µM (active)
same,EC50,Streptococcus,20.5 µM (active)
Cn1c(CCN2CCCCC2)nc2cc(NS(=O)(=O)c3ccc(F)cc3)ccc21,EC50,[5],51.6 µM (active)
same,EC50,[7],55.9 µM (active)
CCCN1C(=O)c2cc(C(=O)Nc3cccc(C(C)=O)c3)ccc2C1Nc1cccc(C(C)=O)c1 (stereo not given),IC50,H9c2,> 79 µM (inactive)
CCOc1ccccc1NC(=O)Nc1ccc(OC)nc1,EC50,[8],31.6 µM (active)
same,EC50,[9],29.5 µM (active)
same,IC50,[1],> 66 µM (inactive)
same,IC50,[2],35.9 µM (inactive)
CC(C)C(NC(=O)c1cccs1)C(=O)NC1=NCCS1 (stereo not given),IC50,[1],> 66 µM (inactive)
same,IC50,[2],> 66 µM (inactive)
Cc1ccc(-c2nc3ccccc3o2)cc1NC(=S)NC(=O)c1cc2ccccc2o1,EC50,[5],5.17 µM (active)
same,EC50,[7],4.68 µM (active)
COc1cc(C(=O)Nc2cccc(-c3nnc(-c4ccco4)o3)c2)ccc1OC(C)=O,IC50,H9c2,> 79 µM (inactive)
COc1cccc(/C=C2/SC(=O)N(CC(=O)N3CCc4ccccc4C3)C2=O)c1OCC(=O)O,IC50,Leucine aminopeptidase,16.2 µM (active)
CCOC(=O)c1cn(-c2ccc(F)c(F)c2)c2c(F)c(F)c(F)c(F)c2c1=O,EC50,[5],19.5 µM (active)
same,EC50,[7],22.4 µM (active)
O=c1c2ccccc2nc(CSc2[nH]cnc3ncnc2-3)n1-c1ccc(Cl)c(Cl)c1,IC50,H9c2,> 79 µM (inactive)
Oc1cc(-c2ccccc2)nc2nc(COc3ccccc3)nn12,IC50,Leucine aminopeptidase,7.61 µM (active)
Cc1cc2cc(CNC(=O)c3ccc4c(c3)OCO4)ccc2n1C,IC50,[1],> 66 µM (inactive)
same,IC50,[2],> 66 µM (inactive)
CC(=O)Nc1sc(C)c(C)c1C(=O)OCC(=O)Nc1cc(S(=O)(=O)N2CCCCC2)ccc1Cl,EC50,[5],43.1 µM (active)
same,EC50,[7],133 µM (active)
O=C(COC(=O)Cn1[nH]c(=O)c2ccccc2c1=O)Nc1c(Cl)cccc1C(F)(F)F,IC50,H9c2,> 79 µM (inactive)
Cc1cccc(Nc2nc(N)nc(CC(=O)CSc3ccc(Cl)cc3)n2)c1,EC50,[5],56 µM (active)
same,EC50,[7],35.6 µM (active)
Cc1ccc(C2(c3noc(CN4CCC(c5ccncc5)CC4)n3)CCCC2)cc1,EC50,[10],19.7 µM (active)
same,EC50,[11],> 38 µM (not active)
same,AC50,[12],0.772 µM (active)
O=C(COC(=O)c1c2c(nc3ccccc13)/C(=C/c1cccc([N+](=O)[O-])c1)CCC2)NC1CCS(=O)(=O)C1 (stereo not given),IC50,H9c2,11.1 µM (active)
CN(C(=O)CC(NC(=O)c1ccccc1)(c1ccccc1)c1ccccc1)c1ccccc1,EC50,[10],30.5 µM (active)
same,EC50,[11],4.72 µM (active)
same,AC50,Cytochrome P450 3A4,0.708 µM (inconclusive)
COc1ccc(Nc2nc(Nc3ccc(OC)cc3OC)nc(N3CCN(C)CC3)n2)c(OC)c1,IC50,H9c2,> 79 µM (inactive)
COc1ccc(-c2cc(=O)oc3cc(OC(C)C(=O)O)ccc23)cc1 (stereo not given),IC50,Leucine aminopeptidase,43.9 µM (active)
Cc1ccc([N+](=O)[O-])cc1NC(=S)NC(=O)c1cccnc1,IC50,[1],> 66 µM (inactive)
same,IC50,[2],> 66 µM (inactive)
Cc1ccc(N(CC(N)=O)C2SC(=O)N(Cc3ccccc3)C2=O)cc1 (stereo not given),IC50,[1],> 66 µM (inactive)
same,IC50,[2],> 66 µM (inactive)
O=C(CSc1nnc(NC2CCCCC2)s1)NN1C(=O)NC2(CCCCC2)C1=O,IC50,Leucine aminopeptidase,10.5 µM (active)
CCN(c1ccccc1)S(=O)(=O)c1ccc(Cl)c(NC(=O)CN(C)C2CCN(C)CC2)c1,EC50,[10],> 150 µM (inactive)
same,EC50,[11],3.82 µM (active)
same,EC50,[4],0.395 µM (active)
same,EC50,[6],> 60 µM (not active)
same,IC50,[13],80.2 µM (active)
Cc1noc(NS(=O)(=O)c2ccc(N/C=C\C(=O)c3ccc4c(c3)OCO4)cc2)c1C,IC50,Leucine aminopeptidase,13.9 µM (active)
CC(=O)Nc1cccc(NC(=O)Cc2nc(-c3ccccc3)sc2-c2ccc(C)cc2)c1,EC50,[5],17.1 µM (active)
same,EC50,[7],16.6 µM (active)
Sc1ncnc2c1ncn2C1CCCO1 (stereo not given),IC50,[1],> 66 µM (inactive)
same,IC50,[2],> 66 µM (inactive)
CN(C)c1cc2c3ccccc3n(C)c2cc1N,IC50,[1],> 66 µM (inactive)
same,IC50,[2],22.8 µM (inactive)
same,IC50,[13],12.7 µM (active)
O=C(NCCCCNC(=O)c1nc[nH]c1C(=O)Nc1cccc(Cl)c1)c1nc[nH]c1C(=O)Nc1cccc(Cl)c1,IC50,H9c2,> 79 µM (inactive)
O=C(N/N=C/c1cn(-c2ccccc2)nc1-c1cccnc1)c1cccnc1,IC50,H9c2,> 79 µM (inactive)
Cn1nc(C(F)(F)F)c(C(=O)Nc2cccc(C(F)(F)F)c2)c1SCc1ccc(Cl)cc1,EC50,[5],22.4 µM (active)
same,EC50,[7],26.7 µM (active)
same,AC50,[12],6.27 µM (active)
